From the supplement of paper PMC10307832

How the values were obtained:
Experiment in all cases: relative viability (nuclei count vs DMSO), 5 days (fraction); higher = more cells survive
Afatinib + Crizotinib = compound: CN(C)C/C=C/C(=O)Nc1cc2c(Nc3ccc(F)c(Cl)c3)ncnc2cc1O[C@H]1CCOC1 [Afatinib] + C[C@@H](Oc1cc(-c2cnn(C3CCNCC3)c2)cnc1N)c1c(Cl)ccc(F)c1Cl [Crizotinib] (partner 1 µM)
In short: (§1)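 Five library-drug doses in √10 steps were combined with a fixed anchor-drug dose, or a single drug was given alone, by pin tool to lung cancer cell lines in 1536-well plates the day after seeding. Nuclei were stained and counted after 5 days. Relative viability is the nuclei count in treated wells over that in vehicle wells, taken as the median of duplicate plates.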

Afatinib + Palbociclib = compound: CN(C)C/C=C/C(=O)Nc1cc2c(Nc3ccc(F)c(Cl)c3)ncnc2cc1O[C@H]1CCOC1 [Afatinib] + CC(=O)c1c(C)c2cnc(Nc3ccc(N4CCNCC4)cn3)nc2n(C2CCCC2)c1=O [Palbociclib] (partner 0.5 µM)
In short: as §1

Afatinib + Vorinostat = compound: CN(C)C/C=C/C(=O)Nc1cc2c(Nc3ccc(F)c(Cl)c3)ncnc2cc1O[C@H]1CCOC1 [Afatinib] + O=C(CCCCCCC(=O)Nc1ccccc1)NO [Vorinostat] (partner 1 µM)
In short: as §1

Afatinib + AZD7762 = compound: CN(C)C/C=C/C(=O)Nc1cc2c(Nc3ccc(F)c(Cl)c3)ncnc2cc1O[C@H]1CCOC1 [Afatinib] + NC(=O)Nc1cc(-c2cccc(F)c2)sc1C(=O)N[C@H]1CCCNC1 [AZD7762] (partner 0.2 µM)
In short: as §1

Cell Line | relative viability (Afatinib + Crizotinib; first compound 0.005 µM) | relative viability (Afatinib + Crizotinib; first compound 0.01581 µM) | relative viability (Afatinib + Crizotinib; first compound 0.05 µM) | relative viability (Afatinib + Crizotinib; first compound 0.1581 µM) | relative viability (Afatinib + Crizotinib; first compound 0.5 µM) | relative viability (Afatinib + Palbociclib; first compound 0.005 µM) | relative viability (Afatinib + Palbociclib; first compound 0.01581 µM) | relative viability (Afatinib + Palbociclib; first compound 0.05 µM) | relative viability (Afatinib + Palbociclib; first compound 0.1581 µM) | relative viability (Afatinib + Palbociclib; first compound 0.5 µM) | relative viability (Afatinib + Vorinostat; first compound 0.005 µM) | relative viability (Afatinib + Vorinostat; first compound 0.01581 µM) | relative viability (Afatinib + Vorinostat; first compound 0.05 µM) | relative viability (Afatinib + Vorinostat; first compound 0.1581 µM) | relative viability (Afatinib + Vorinostat; first compound 0.5 µM) | relative viability (Afatinib + AZD7762; first compound 0.005 µM) | relative viability (Afatinib + AZD7762; first compound 0.01581 µM) | relative viability (Afatinib + AZD7762; first compound 0.05 µM) | relative viability (Afatinib + AZD7762; first compound 0.1581 µM) | relative viability (Afatinib + AZD7762; first compound 0.5 µM)
A549 | 0.995 | 0.655 | 0.712 | 0.695 | 0.796 |  |  |  |  |  |  |  |  |  |  |  |  |  |  | 
COR-L23 | 0.803 | 0.583 | 0.634 | 0.603 | 0.75 | 0.329 | 0.308 | 0.317 | 0.274 | 0.339 | 0.682 | 0.443 | 0.484 | 0.39 | 0.485 |  |  |  |  | 
COR-L 105 | 0.618 | 0.285 | 0.304 | 0.221 | 0.216 | 0.398 | 0.355 | 0.3 | 0.36 | 0.352 | 0.667 | 0.386 | 0.47 | 0.336 | 0.386 |  |  |  |  | 
Calu-6 | 0.861 | 0.654 | 0.869 | 0.8 | 0.755 |  |  |  |  |  |  |  |  |  |  |  |  |  |  | 
EBC-1 | 0.193 | 0.174 | 0.191 | 0.189 | 0.209 |  |  |  |  |  |  |  |  |  |  |  |  |  |  | 
IA-LM | 1.12 | 0.728 | 1.04 | 0.74 | 1.11 |  |  |  |  |  | 1.1 | 0.964 | 0.866 | 0.81 | 0.892 |  |  |  |  | 
NCI-H520 | 1.33 | 0.851 | 0.832 | 0.749 | 0.737 | 0.245 | 0.241 | 0.229 | 0.219 | 0.229 | 0.807 | 0.707 | 0.639 | 0.698 | 0.717 |  |  |  |  | 
NCI-H522 |  |  |  |  |  | 1 | 1.05 | 1.15 | 0.881 | 0.675 | 0.865 | 0.928 | 0.829 | 0.7 | 0.721 | 0.76 | 0.812 | 0.817 | 0.767 | 0.748
NCI-H596 | 0.987 | 0.866 | 0.94 | 0.904 | 0.921 |  |  |  |  |  | 0.706 | 0.541 | 0.571 | 0.745 | 0.62 | 1.06 | 1.01 | 1.11 | 1.09 | 0.901
NCI-H661 | 1.25 | 1.03 | 0.996 | 0.838 | 0.773 | 0.387 | 0.339 | 0.347 | 0.34 | 0.337 | 0.867 | 0.738 | 0.755 | 0.64 | 0.63 |  |  |  |  | 
NCI-H1299 | 1.01 | 0.961 | 0.983 | 0.97 | 0.934 |  |  |  |  |  |  |  |  |  |  |  |  |  |  | 
NCI-H1395 |  |  |  |  |  | 0.592 | 0.572 | 0.625 | 0.591 | 0.606 | 0.857 | 0.571 | 0.674 | 0.711 | 0.5 | 0.388 | 0.378 | 0.377 | 0.385 | 0.354
NCI-H1563 | 0.844 | 0.835 | 0.872 | 0.795 | 0.882 |  |  |  |  |  |  |  |  |  |  |  |  |  |  | 
NCI-H1650 | 0.907 |  | 0.8 | 0.612 | 0.796 | 0.299 | 0.257 | 0.305 | 0.347 | 0.269 | 0.462 | 0.424 | 0.599 | 0.472 | 0.432 |  |  |  |  | 
NCI-H1703 | 0.824 | 0.694 | 0.581 | 0.731 | 0.561 |  |  |  |  |  |  |  |  |  |  | 0.13 | 0.141 | 0.119 | 0.121 | 0.109
NCI-H1792 | 1.04 | 1.01 | 0.977 | 0.907 | 0.856 | 0.73 | 0.661 | 0.63 | 0.599 | 0.651 |  |  |  |  |  | 0.615 | 0.534 | 0.703 | 0.643 | 0.466
NCI-H2009 | 1.07 | 0.977 | 1.12 | 1.04 | 1.04 | 0.238 | 0.25 | 0.253 | 0.231 | 0.247 | 0.772 | 0.775 | 0.812 | 0.701 | 0.755 |  |  |  |  | 
NCI-H2023 | 0.576 | 0.487 | 0.407 | 0.402 | 0.487 | 0.382 | 0.333 | 0.284 | 0.265 | 0.275 | 0.445 | 0.566 | 0.592 | 0.556 | 0.549 |  |  |  |  | 
NCI-H2228 | 0.455 | 0.46 | 0.345 |  | 0.34 | 0.884 | 0.774 | 0.705 | 0.749 | 0.744 | 0.928 | 0.444 | 0.566 | 0.698 | 0.462 |  |  |  |  | 
SK-LU-1 | 1.07 | 0.731 | 0.879 | 1.12 | 0.842 | 0.355 | 0.416 | 0.413 | 0.396 | 0.4 | 0.727 | 0.806 | 0.767 | 0.771 | 0.738 |  |  |  |  | 
SK-MES-1 | 0.977 | 0.879 | 0.626 | 0.485 | 0.466 | 0.305 | 0.289 | 0.306 | 0.257 | 0.257 | 0.542 | 0.816 | 0.509 | 0.54 | 0.506 |  |  |  |  | 
SW 1573 | 0.963 | 0.885 | 1.01 | 0.683 | 0.75 | 0.451 | 0.364 | 0.404 | 0.306 | 0.362 | 0.696 | 0.682 | 1.01 | 0.692 | 0.777 |  |  |  |  | 
UMC-11 | 0.679 | 0.558 | 0.557 | 0.629 | 0.71 | 0.355 | 0.325 | 0.283 | 0.308 | 0.325 | 0.378 | 0.361 | 0.347 | 0.416 | 0.364 |  |  |  |  | 
